Results on 1 molecule are retold here after patent US20040147567A1, “Arginine derivatives” (priority 2001, published 2004).

As a reminder, the IC50 is the concentration needed to halve the response being measured. Read a high IC50 as weaker potency in that assay.

The target in this test is T1, human MC4 receptor (Homo sapiens, UniProt P32245).
T1 construct: purchased Biolinks Co; host or cells: HEK-293 cell membranes
Description: MC4 receptor binding assay ([125I]Nle4-D-Phe7-α-MSH displacement). The following applies: HEK-293 cell membranes expressing the human MC4 receptor; [125I]Nle4-D-Phe7-α-MSH 0.2 nM; 25° C., 120 minutes. Here is the method:
Experiment 1 [MC4 Receptor Binding Assay]
MC4 receptor binding assay was carried out according to the method described in Pharmacology & Toxicology, 79, 161-165, 1996. HEK-293 cell membranes expressing the human MC4 receptor were purchased from Biolinks Co. The cell membranes were homogenized in a 50 mM Tris hydrochloric acid buffer solution (pH 7.4) containing 2 mM ethylenediamine tetraacetic acid, 10 mM calcium chloride and 100 μM phenylmethanesulfonylfluoride. The homogenate was centrifuged at 48,000×g for 20 minutes at 4° C. The precipitate obtained by centrifugation was again homogenized in the same buffer solution, and the homogenate was centrifuged at 48,000×g for 20 minutes at 4° C. This procedure was repeated twice. The precipitate was suspended in 50 mM Tris hydrochloric acid buffer solution (pH 7.4) containing 2 mM ethylenediamine tetraacetic acid, 10 mM calcium chloride, 100 μM phenylmethanesulfonylfluoride and 0.1% bovine serum albumin to adjust to a protein concentration of 100 μg/ml to give a crude membrane preparation which was used for the binding assay. The crude membrane preparation (0.25 ml, 25 μg protein) was reacted with [^125I]Nle^4-D-Phe^7-α-MSH (final concentration; 0.2 nM) at 25° C. for 120 minutes. […] The radioactivity on the filter paper was measured in a gamma-counter. […] The IC50 value was calculated from the inhibition curve in the concentration of 10^−9-10^−5.

T1 sequence (P32245 whole entry): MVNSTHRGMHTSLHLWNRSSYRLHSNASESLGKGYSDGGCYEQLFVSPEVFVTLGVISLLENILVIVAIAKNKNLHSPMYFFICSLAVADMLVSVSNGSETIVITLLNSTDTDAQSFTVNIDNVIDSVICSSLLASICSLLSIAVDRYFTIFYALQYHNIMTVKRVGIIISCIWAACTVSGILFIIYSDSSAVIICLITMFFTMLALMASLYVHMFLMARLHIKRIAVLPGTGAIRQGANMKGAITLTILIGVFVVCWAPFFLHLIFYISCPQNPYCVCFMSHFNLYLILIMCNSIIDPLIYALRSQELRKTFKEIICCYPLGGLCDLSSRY

Turning to `CC(=O)N[C@H](Cc1cccc2ccccc12)C(=O)N[C@@H](CCCNC(=N)N)C(=O)N[C@H](Cc1ccc2ccccc2c1)C(N)=O` [Compound 224], the IC50 was determined as 690 nM. This lies in the sub-micromolar range.
